Experimental data: PubChem BioAssay (NCI)
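How tested: cells in 96-well plates exposed to compound for 48 hours at five concentrations. GI50 = concentration required for 50% inhibition of growth. Definition used: TGI = concentration required for complete inhibition of growth.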

Legend:
Assay in all cases: NCI anticancer screen, dose series, 48 h
[1] = tested on: SK-OV-3 ovarian
[2] = tested on: OVCAR-3 ovarian
[3] = tested on: OVCAR-4 ovarian
[4] = tested on: OVCAR-5 ovarian
[5] = tested on: EKVX NSCLC
[6] = tested on: SK-MEL-28 melanoma
[7] = tested on: SK-MEL-2 melanoma
[8] = tested on: NCI-H460 lung
[9] = tested on: TK-10 renal
[10] = tested on: HCT-15 colon

| SMILES | TGI [1] [µM] | TGI [2] [µM] | TGI [3] [µM] | TGI [4] [µM] | TGI [5] [µM] | TGI [6] [µM] | TGI [7] [µM] | TGI [8] [µM] | GI50 [1] [µM] | GI50 [9] [µM] | TGI [9] [µM] | GI50 [2] [µM] | GI50 [3] [µM] | GI50 [4] [µM] | GI50 [10] [µM] | TGI [10] [µM] | GI50 [5] [µM] | GI50 [6] [µM] | GI50 [7] [µM] | GI50 [8] [µM] |
| --- | --- | --- | --- | --- | --- | --- | --- | --- | --- | --- | --- | --- | --- | --- | --- | --- | --- | --- | --- | --- |
| CCOC(=O)C1=C(Nc2cccc3ccccc23)OCC1=O | > 100 | > 100 | > 100 | > 100 | > 100 | > 100 | > 100 | > 100 |  |  |  |  |  |  |  |  |  |  |  |  |
| CCC1C[N+]2=C(c3cc(OC)c(OC)cc3CC2)c2c1cc1n2CCc2cc(OC)c(OC)cc2-1 (centres undefined) | 37.5 | 10.8 | 8.87 | > 100 | > 100 | 10.1 | 7.31 | 12.1 | 5.01 | 6.84 | 21.1 | 1 | 1.14 | 12.1 | 14 | 34.7 | 6.62 | 1.93 | 2.67 | 2.82 |
| Cc1nc2sc(C(=O)Nc3cccc(Cl)c3C)c(N)c2cc1C(O)c1ccccc1 (centres undefined) | 33.4 | 1.14 | 26.7 | 46.5 | 21.4 | 23.1 | 12.6 | 0.486 | 0.0697 | 2.04 | 25.6 | 0.0351 | 0.246 | 0.14 | 0.033 | 10.5 | 0.268 | 1.6 | 0.0754 | 0.0347 |
| CC(C)(C)[Si](C)(C)O/N=C\c1cccc(O[Si](C)(C)C(C)(C)C)c1 | 36.2 | 29.8 | 34.2 | 35 | 36.9 |  | 35.3 | 32.6 |  |  | 49.8 |  |  |  |  | 35.7 |  |  |  |  |
| CN1CCC(n2cnc(-c3ccc(F)cc3)c2-c2ccnc(Nc3ccccc3)n2)CC1 | > 25 | > 25 | > 25 | > 25 | > 25 | 11 | > 25 | > 25 | 3.81 | 2.34 | > 25 | 7.65 | 8.12 | 15 | 6.22 | > 25 | 3.75 | 5.19 | 11.3 | 5.39 |
| COc1ccc(C2C(C(=O)O)=C(CO)Oc3cc4c(cc32)OCO4)c(OC)c1 (centres undefined) | > 100 | > 100 | > 100 |  | > 100 | > 100 |  | > 100 |  |  | > 100 |  |  |  |  | > 100 |  |  |  |  |
| O=CCC(O)C(O)C(O)CO (centres undefined) | > 100 | > 100 | > 100 | > 100 | > 100 | > 100 | > 100 | > 100 | > 100 | > 100 | > 100 | > 100 | > 100 | > 100 | > 100 | > 100 | > 100 | > 100 | > 100 | > 100 |
| CC(C)(C)CC(C)(C)c1cc2c(O)c(c1)Cc1cc(C(C)(C)CC(C)(C)C)cc(c1O)Cc1cc(C(C)(C)CC(C)(C)C)cc(c1O)Cc1cc(C(C)(C)CC(C)(C)C)cc(c1O)Cc1cc(C(C)(C)CC(C)(C)C)cc(c1O)Cc1cc(C(C)(C)CC(C)(C)C)cc(c1O)Cc1cc(C(C)(C)CC(C)(C)C)cc(c1O)Cc1cc(C(C)(C)CC(C)(C)C)cc(c1O)C2 |  | > 100 | > 100 | > 100 | > 100 | > 100 | > 100 | > 100 |  |  | > 100 |  |  |  |  | > 100 |  |  |  |  |
